The record followed here is PubChem BioAssay (NCI).

“And” between values parts separate entries of the source, which are not always exact repeats. Equal entries are not always repeated.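 Following 48 hours of exposure in 96-well plates, responses at five concentrations were used to interpolate endpoints linearly. The concentration for 50% growth inhibition is given as GI50. TGI denotes the concentration required for complete inhibition of growth.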 Bounds are passed on as bounds.

Test systems include CCRF-CEM leukemia; A549 NSCLC; OVCAR-5 ovarian; UACC-62 melanoma; U251 CNS; OVCAR-3 ovarian; KM12 colon; SF-539 CNS; SK-MEL-5 melanoma; SNB-19 CNS.
Experiment in all cases: growth of human tumour cells (NCI), 48 h

With `CC(C)=CCC/C(C)=C/CCC1(C)C=Cc2c(c3ccccc3oc2=O)O1` (stereo not drawn), the TGI was above 74 µM in the experiment on CCRF-CEM leukemia; 33.2 µM with A549 NSCLC; 32.6 µM in the experiment on OVCAR-5 ovarian; 24 µM in the experiment with UACC-62 melanoma; 28.8 µM in the experiment on U251 CNS; 32.7 µM with OVCAR-3 ovarian. The TGI is 33.2 µM with KM12 colon, 30.5 µM with SF-539 CNS, 28.1 µM in the experiment with SK-MEL-5 melanoma and 37.7 µM in the experiment with SNB-19 CNS.
For the molecule `OC1COC(OCc2ccccc2)C(O)C1O` (stereo not drawn), the TGI in the experiment with CCRF-CEM leukemia, in the experiment on A549 NSCLC, with OVCAR-5 ovarian, in the experiment with UACC-62 melanoma, with U251 CNS and in the experiment with OVCAR-3 ovarian was above 100 µM in each case. Also, the TGI with KM12 colon, in the experiment with SF-539 CNS, in the experiment on SK-MEL-5 melanoma and with SNB-19 CNS was above 100 µM throughout.
Consider `C/C(=N\NC(=S)Nc1ccc([N+](=O)[O-])cc1)c1nc2ncccc2[nH]1`, for which the TGI in the experiment on CCRF-CEM leukemia was 12.4 µM; in the experiment with A549 NSCLC it was 19.1 µM; with OVCAR-5 ovarian it was 4.14 µM; in the experiment on U251 CNS it was 1.84 µM; in the experiment on OVCAR-3 ovarian, 17.7 µM; in the experiment with KM12 colon it was above 100 µM. Moreover, the TGI in the experiment on SF-539 CNS came out at 1.37 µM; in the experiment on SK-MEL-5 melanoma, 5.27 µM; in the experiment with SNB-19 CNS, 4 µM.
For the molecule `O=C(O)CCCc1ccccc1`, the GI50 with CCRF-CEM leukemia was above 1000 µM; in the experiment on A549 NSCLC, 322 µM and > 1000 µM; with OVCAR-5 ovarian, 456 µM and > 1000 µM; in the experiment on UACC-62 melanoma, above 1000 µM; in the experiment on U251 CNS it was 292 µM and > 1000 µM; in the experiment with OVCAR-3 ovarian it was 537 µM. Also, the GI50 with KM12 colon was above 1000 µM; in the experiment with SF-539 CNS it was above 1000 µM; in the experiment on SK-MEL-5 melanoma it was above 1000 µM; in the experiment with SNB-19 CNS, 537 µM and > 1000 µM. In addition, the TGI with CCRF-CEM leukemia is 350 µM and > 1000 µM; with A549 NSCLC, above 1000 µM; in the experiment with OVCAR-5 ovarian, above 1000 µM; in the experiment with UACC-62 melanoma, 587 µM and > 1000 µM; in the experiment with U251 CNS it was above 1000 µM; with OVCAR-3 ovarian it was above 1000 µM. The TGI with KM12 colon is 366 µM and > 1000 µM; in the experiment on SF-539 CNS, 533 µM and > 1000 µM; in the experiment with SK-MEL-5 melanoma, 427 µM and > 1000 µM; in the experiment with SNB-19 CNS, above 1000 µM.
For `Cc1cn(C2CC(O)C(Cn3nncc3Cn3ncc(=O)[nH]c3=O)O2)c(=O)[nH]c1=O` (stereo not drawn), the TGI in the experiment with CCRF-CEM leukemia, in the experiment with A549 NSCLC, with OVCAR-5 ovarian, in the experiment with UACC-62 melanoma, with U251 CNS and in the experiment on OVCAR-3 ovarian was above 100 µM in each case. Besides, the TGI in the experiment with KM12 colon, in the experiment on SF-539 CNS, with SK-MEL-5 melanoma and in the experiment with SNB-19 CNS was above 100 µM throughout.
As to `C=CCNC(=O)CN(CC(=O)OC)C1CCCCC1N(CC(=O)OC)CC(=O)OC` (stereo not drawn), the TGI in the experiment on CCRF-CEM leukemia, in the experiment on A549 NSCLC, in the experiment on OVCAR-5 ovarian, with UACC-62 melanoma, with U251 CNS and in the experiment on OVCAR-3 ovarian was above 100 µM in each case. The TGI with KM12 colon, in the experiment on SF-539 CNS, in the experiment with SK-MEL-5 melanoma and in the experiment with SNB-19 CNS was above 100 µM throughout.
In the case of `O=C(O)C12CC3CC(C1)C2C=C3P(=O)(O)O` (stereo not drawn), the TGI in the experiment on CCRF-CEM leukemia, with OVCAR-5 ovarian, in the experiment with UACC-62 melanoma, in the experiment with U251 CNS, with OVCAR-3 ovarian and in the experiment with KM12 colon was above 100 µM throughout.
For the molecule `COCCOCOC(C)(C)[C@H](CCO)O[Si](c1ccccc1)(c1ccccc1)C(C)(C)C`, the TGI in the experiment on A549 NSCLC is 22.1 µM; in the experiment with OVCAR-5 ovarian, 27.5 µM; in the experiment with UACC-62 melanoma, 28.3 µM; with U251 CNS, 24.5 µM; in the experiment with OVCAR-3 ovarian, 22.2 µM; in the experiment on KM12 colon it was 31.9 µM. The TGI in the experiment with SF-539 CNS was determined as 27.4 µM; in the experiment on SK-MEL-5 melanoma it was 26.7 µM; in the experiment on SNB-19 CNS it was 31.7 µM.
For the molecule `O=C1c2ccccc2C(=O)c2c1cc1c(c2[N+](=O)[O-])OCO1`, the GI50 was 0.492 µM in the experiment on CCRF-CEM leukemia; 4.94 µM with A549 NSCLC; 2.39 µM in the experiment on OVCAR-5 ovarian; 2.15 µM in the experiment on U251 CNS; 1.43 µM with OVCAR-3 ovarian; 1.45 µM in the experiment with KM12 colon. Moreover, the GI50 in the experiment on SF-539 CNS is 1.71 µM; in the experiment with SK-MEL-5 melanoma, 3.48 µM; with SNB-19 CNS it was 2.55 µM. For the same molecule, the TGI is above 100 µM in the experiment on CCRF-CEM leukemia; 21.9 µM with A549 NSCLC; 8.74 µM in the experiment on OVCAR-5 ovarian; 7.72 µM with U251 CNS; 4.77 µM in the experiment with OVCAR-3 ovarian; 5.94 µM in the experiment on KM12 colon. The TGI with SF-539 CNS turned out to be 6.31 µM; in the experiment on SK-MEL-5 melanoma, 11.7 µM; in the experiment on SNB-19 CNS, 14.4 µM.
`CC(C)=CC(=O)OC1C2C(C)=CC(O)C(O)C2(C)C2C3(O)OCC24C(CC(=O)OC14)C(C)C3O` (stereo not drawn): the TGI in the experiment with CCRF-CEM leukemia turned out to be 0.624 µM; with A549 NSCLC, 9.68 µM; in the experiment with OVCAR-5 ovarian, 3.79 µM; in the experiment with UACC-62 melanoma, 0.263 µM; with U251 CNS it was 0.248 µM; with OVCAR-3 ovarian it was 0.171 µM. The TGI with KM12 colon turned out to be 0.622 µM; with SF-539 CNS, 0.187 µM; with SK-MEL-5 melanoma, 0.064 µM; with SNB-19 CNS it was 0.519 µM.
Take `COc1cc(/C=C/C2=C(C#N)C(=O)OC2(C)C)ccc1O`: the TGI in the experiment on CCRF-CEM leukemia is 33.1 µM; in the experiment on A549 NSCLC, above 100 µM; in the experiment with OVCAR-5 ovarian, above 100 µM; with UACC-62 melanoma, above 100 µM; with U251 CNS it was 31.7 µM; in the experiment on OVCAR-3 ovarian, above 100 µM. Besides, the TGI with KM12 colon, in the experiment with SK-MEL-5 melanoma and in the experiment on SNB-19 CNS was above 100 µM each time.
On to `CCCCCCCCCCCCC(O)C(=O)O` (stereo not drawn), for which the TGI with CCRF-CEM leukemia, in the experiment on A549 NSCLC, in the experiment with OVCAR-5 ovarian, in the experiment on UACC-62 melanoma, in the experiment on U251 CNS and with OVCAR-3 ovarian was above 100 µM throughout. The TGI in the experiment on KM12 colon, with SF-539 CNS, with SK-MEL-5 melanoma and in the experiment on SNB-19 CNS was above 100 µM each time.
Consider `COc1cc(C(=O)C2CC3(CCC2(O)c2cc(OC)c(OC)c(OC)c2)CC(=O)Nc2ccccc2C3=O)cc(OC)c1OC` (stereo not drawn), for which the TGI in the experiment with CCRF-CEM leukemia, with A549 NSCLC, in the experiment with OVCAR-5 ovarian, with UACC-62 melanoma, with U251 CNS and in the experiment on OVCAR-3 ovarian was above 100 µM in each case. Also, the TGI was above 100 µM with SF-539 CNS, 81.2 µM in the experiment with SK-MEL-5 melanoma and above 100 µM in the experiment on SNB-19 CNS.
Take `c1ccc2cc3c(cc2c1)OP1(Oc2cccc4cccnc24)(O3)Oc2cc3ccccc3cc2O1`: the TGI in the experiment on CCRF-CEM leukemia is above 100 µM; in the experiment with A549 NSCLC, above 100 µM; with OVCAR-5 ovarian, 45.6 µM; with UACC-62 melanoma it was 9.39 µM; in the experiment on U251 CNS, above 100 µM; with OVCAR-3 ovarian it was 5.45 µM. The TGI in the experiment on KM12 colon is 21.8 µM; in the experiment with SF-539 CNS, 49.2 µM; with SK-MEL-5 melanoma, 14.8 µM; with SNB-19 CNS it was above 100 µM.
Regarding `Nc1n[nH]c(CCCCCCCc2nc(N)n[nH]2)n1`, the TGI in the experiment with CCRF-CEM leukemia, in the experiment with OVCAR-5 ovarian, in the experiment with UACC-62 melanoma, in the experiment on U251 CNS, with OVCAR-3 ovarian and in the experiment with KM12 colon was above 100 µM throughout. Moreover, the TGI with SF-539 CNS and in the experiment on SNB-19 CNS was above 100 µM each time.
As to `Cc1c(C2=NN=C(N=Nc3c(O)cccc3O)/C2=C/c2ccccc2)c(=O)n(-c2ccccc2)n1C`, the TGI in the experiment with CCRF-CEM leukemia, in the experiment on A549 NSCLC, in the experiment on OVCAR-5 ovarian, in the experiment with UACC-62 melanoma, in the experiment with U251 CNS and in the experiment with OVCAR-3 ovarian was above 100 µM throughout. The TGI in the experiment on KM12 colon, in the experiment on SF-539 CNS, in the experiment on SK-MEL-5 melanoma and with SNB-19 CNS was above 100 µM in each case.
